Tested on: human maximum recommended daily dose, FDA database
Assay: DSSTox (FDAMDD) FDA Maximum (Recommended) Daily Dose Database
Settings: active compounds read low
Outline: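 MRDD values come from clinical trials with daily oral dosing, usually for 3–12 months, for the average adult, in mg/day converted to mg/kg-bw/day assuming 60 kg. Antineoplastic mg/m2 doses are divided by 37. Activity score maps log10(1/MRDD mmol) onto 1–100.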

[1] = TherapeuticCategory: antibacterial
[2] = TherapeuticCategory: diagnostic aid
[3] = TherapeuticCategory: anticholinergic
[4] = TherapeuticCategory: sedative, hypnotic
[5] = TherapeuticCategory: antiarrhythmic
[6] = TherapeuticCategory: bronchodilator

## NS(=O)(=O)c1cc2c(cc1Cl)NC(C(Cl)Cl)NS2(=O)=O (stereo not drawn)
TherapeuticCategory: diuretic, antihypertensive
  maximum recommended daily dose (mmol/kg-bw/day): 0.000175

## CC1(C)S[C@@H]2[C@H](NC(=O)[C@H](N)c3ccc(O)cc3)C(=O)N2[C@H]1C(=O)O
[1]
  maximum recommended daily dose (mmol/kg-bw/day): 0.0596

## CN(C)C=Nc1c(I)cc(I)c(CCC(=O)O)c1I
[2]
  maximum recommended daily dose (mmol/kg-bw/day): 0.167

## CCCCCCC(=O)O[C@H]1CC[C@H]2[C@@H]3CCc4cc(O)ccc4[C@H]3CC[C@]12C
TherapeuticCategory: estrogen
  maximum recommended daily dose (mmol/kg-bw/day): 0.0013

## NC[C@H]1O[C@H](O[C@H]2[C@H](O)[C@@H](O)[C@H](N)C[C@@H]2N)[C@H](N)[C@@H](O)[C@@H]1O
[1]
  maximum recommended daily dose (mmol/kg-bw/day): 0.31

## CNC(=O)c1c(I)c(NC(=O)CCCCC(=O)Nc2c(I)c(C(=O)O)c(I)c(C(=O)NC)c2I)c(I)c(C(=O)O)c1I
[2]
  maximum recommended daily dose (mmol/kg-bw/day): 0.0798

## CCCC(CCC)C(=O)OC1C[C@H]2CC[C@@H](C1)[N+]2(C)C (stereo partly drawn)
[3]
  maximum recommended daily dose (mmol/kg-bw/day): 0.0069

## CC1OC(C)OC(C)O1 (stereo not drawn)
[4]
  maximum recommended daily dose (mmol/kg-bw/day): 1.89

## COC(=O)C1=C(C)NC(C)=C(C(=O)OCCN(C)Cc2ccccc2)C1c1cccc([N+](=O)[O-])c1 (stereo not drawn)
TherapeuticCategory: antianginal, antihypertensive
  maximum recommended daily dose (mmol/kg-bw/day): 0.00417

## CCCOC(=O)Cn1cc(I)c(=O)c(I)c1
[2]
  maximum recommended daily dose (mmol/kg-bw/day): 0.224

## c1ccc(C2(c3ccccc3)CC2C2=NCCN2)cc1 (stereo not drawn)
[5]
  maximum recommended daily dose (mmol/kg-bw/day): 0.0248

## N=C(N)N1CCc2ccccc2C1
TherapeuticCategory: antihypertensive
  maximum recommended daily dose (mmol/kg-bw/day): 0.0285

## CCC(=O)O[C@]1(C(=O)COC(C)=O)CC[C@H]2[C@@H]3C[C@H](C)C4=CC(=O)C=C[C@]4(C)[C@H]3[C@@H](O)C[C@@]21C
TherapeuticCategory: glucocorticoid
  maximum recommended daily dose (mmol/kg-bw/day): 0.00882

## C#C[C@]1(O)CC[C@H]2[C@@H]3CCC4=CC(=O)CCC4=C3C=C[C@@]21CC
TherapeuticCategory: antigonadotropin
  maximum recommended daily dose (mmol/kg-bw/day): 0.000135

## O=C1NCC2(CCN(CCc3ccccc3)CC2)O1
TherapeuticCategory: bronchodilator, alpha adrenergic blocker
  maximum recommended daily dose (mmol/kg-bw/day): 0.0307

## OCc1ccccc1
TherapeuticCategory: none
  maximum recommended daily dose (mmol/kg-bw/day): 0.0462

## C#CC(O)(/C=C\Cl)CC (stereo not drawn)
[4]
  maximum recommended daily dose (mmol/kg-bw/day): 0.115

## Cc1ccnc(NS(=O)(=O)c2ccc(N)cc2)n1
[1]
  maximum recommended daily dose (mmol/kg-bw/day): 0.252

## CC(CN1c2ccccc2Sc2ccc(S(=O)(=O)N(C)C)cc21)N(C)C (stereo not drawn)
TherapeuticCategory: antimigraine
  maximum recommended daily dose (mmol/kg-bw/day): 0.0034

## CCN1/C(=C/C=C/C=C/c2sc3ccccc3[n+]2CC)Sc2ccccc21
TherapeuticCategory: anthelmintic
  maximum recommended daily dose (mmol/kg-bw/day): 0.00642

## O=C(Cn1cnnn1)N[C@@H]1C(=O)N2C(C(=O)O)=C(CSc3nncs3)CS[C@H]12
[1]
  maximum recommended daily dose (mmol/kg-bw/day): 0.151

## CNC(C)Cc1ccccc1OC (stereo not drawn)
[6]
  maximum recommended daily dose (mmol/kg-bw/day): 0.0558

## CC(C)(C)NC(=O)[C@@H]1CN(Cc2cccnc2)CCN1C[C@@H](O)C[C@@H](Cc1ccccc1)C(=O)N[C@H]1c2ccccc2C[C@H]1O
TherapeuticCategory: antiviral
  maximum recommended daily dose (mmol/kg-bw/day): 0.0264

## N[C@@H](CC(=O)O)C(=O)O
TherapeuticCategory: roborant
  maximum recommended daily dose (mmol/kg-bw/day): 0.751

## CN(CCCN1c2ccccc2CCc2ccccc21)CC(=O)c1ccc(Cl)cc1
TherapeuticCategory: antidepressant
  maximum recommended daily dose (mmol/kg-bw/day): 0.00835

## CC(=O)OCC(=O)[C@@]1(OC(=O)c2ccco2)[C@H](C)C[C@H]2[C@@H]3CCC4=CC(=O)C=C[C@]4(C)[C@@]3(F)[C@@H](O)C[C@@]21C
TherapeuticCategory: glucocorticoid, anti inflammatory
  maximum recommended daily dose (mmol/kg-bw/day): 0.000284

## CCn1cc(C(=O)O)c(=O)c2cnc(N3CCNCC3)nc21
[1]
  maximum recommended daily dose (mmol/kg-bw/day): 0.0438

## CCCCNc1cc(C(=O)O)cc(S(N)(=O)=O)c1Oc1ccccc1
TherapeuticCategory: diuretic
  maximum recommended daily dose (mmol/kg-bw/day): 0.000458

## CC(=O)N(O)CCCCCNC(=O)CCC(=O)N(O)CCCCCNC(=O)CCC(=O)N(O)CCCCCN
TherapeuticCategory: parenteral chelating agent
  maximum recommended daily dose (mmol/kg-bw/day): 0.178

## O=c1c(CO)c/c(=N/Nc2ccc(S(=O)(=O)O)c3ccccc23)c(=O)/c1=N/Nc1ccc(S(=O)(=O)O)c2ccccc12
TherapeuticCategory: food additive
  maximum recommended daily dose (mmol/kg-bw/day): 0.0023

## CC(N)Cc1ccc(O)cc1 (stereo not drawn)
TherapeuticCategory: adrenergic, mydriatic
  maximum recommended daily dose (mmol/kg-bw/day): 0.0265

## Cc1ccc(C(=O)Oc2ccc(C(O)CNC(C)(C)C)cc2OC(=O)c2ccc(C)cc2)cc1 (stereo not drawn)
[6]
  maximum recommended daily dose (mmol/kg-bw/day): 8.02e-05

## NC(N)=NCCCC(N)C(=O)O (stereo not drawn)
TherapeuticCategory: ammonia detoxicant, diagnostic aid
  maximum recommended daily dose (mmol/kg-bw/day): 2.87

## COc1ccc(C(=O)Nc2ccccc2CCC2CCCCN2C)cc1 (stereo not drawn)
[5]
  maximum recommended daily dose (mmol/kg-bw/day): 0.00945

## CC(=O)OC1C([N+]2(C)CCCCC2)C[C@H]2[C@@H]3CC[C@H]4C[C@H](OC(C)=O)C(N5CCCCC5)C[C@]4(C)[C@H]3CC[C@]12C (stereo partly drawn)
TherapeuticCategory: skeletal muscle relaxant
  maximum recommended daily dose (mmol/kg-bw/day): 0.000157

## C[C@@](Cc1ccc(O)c(O)c1)(NN)C(=O)O
TherapeuticCategory: antiparkinsonian
  maximum recommended daily dose (mmol/kg-bw/day): 0.00368

## O=C1CN(/N=C/c2ccc([N+](=O)[O-])o2)C(=O)N1
[1]
  maximum recommended daily dose (mmol/kg-bw/day): 0.028

## CC(C)[N+](C)(CCOC(=O)C1c2ccccc2Oc2ccccc21)C(C)C
[3]
  maximum recommended daily dose (mmol/kg-bw/day): 0.00279
